Experiments:
[1] = target: T1, HCV NS5B (Hepatitis C virus genotype 1b, UniProt Q9WMX2); test: Modified HCV NS5B RdRp enzyme assay (preincubation protocol); format: biochemical
T1 construct: The protein was expressed with an 18 amino acid C-terminal truncation to enhance the solubility; made in house; host or cells: E. coli BL21(DE3)
Protocol: The cDNA encoding the NS5B protein of HCV, genotype 1b, was cloned into the pET21a expression vector. The protein was expressed with an 18 amino acid C-terminal truncation to enhance the solubility. The E. coli competent cell line BL21(DE3) was used for expression of the protein. Cultures were grown at 37° C. for ˜4 hours until the cultures reached an optical density of 2.0 at 600 nm. The cultures were cooled to 20° C. and induced with 1 mM IPTG. Fresh ampicillin was added to a final concentration of 50 μg/ml and the cells were grown overnight at 20° C.
Cell pellets (3 L) were lysed for purification to yield 15-24 mgs of purified NS5B. The lysis buffer consisted of 20 mM Tris-HCl, pH 7.4, 500 mM NaCl, 0.5% triton X-100, 1 mM DTT, 1 mM EDTA, 20% glycerol, 0.5 mg/ml lysozyme, 10 mM MgCl2, 15 ug/ml deoxyribonuclease I, and Complete TM protease inhibitor tablets (Roche). After addition of the lysis buffer, frozen cell pellets were resuspended using a tissue homogenizer. To reduce the viscosity of the sample, aliquots of the lysate were sonicated on ice using a microtip attached to a Branson sonicator. The sonicated lysate was centrifuged at 100,000×g for 1 hr at 4° C. and filtered through a 0.2 μm filter unit (Corning).
The protein was purified using three sequential chromatography steps: Heparin sepharose CL-6B, polyU sepharose 4B, and […] SP sepharose (Pharmacia). The chromatography buffers were identical to the lysis buffer but contained no lysozyme, deoxyribonuclease I, MgCl2 or protease inhibitor and the NaCl concentration of the buffer was adjusted according to the requirements for charging the protein onto the column. Each column was eluted with a NaCl gradient which varied in length from 5-50 column volumes depending on the column type. After the final chromatography step, the resulting purity of the enzyme is >90% based on SDS-PAGE analysis. The enzyme was aliquoted and stored at −80° C.
HCV RdRp genotype 1b assays were run in a final volume of 60 μl in 96 well plates (Costar 3912). The assay buffer is composed of 20 mM Hepes, pH 7.5, 2.5 mM KCl, 2.5 mM MgCl2, 1 mM DTT, 1.6 U RNAse inhibitor (Promega N2515), 0.1 mg/ml BSA (Promega R3961), and 2% glycerol. All compounds were serially diluted (3-fold) in DMSO and diluted further in water such that the final concentration of DMSO in the assay was 2%. HCV RdRp genotype 1b enzyme was used at a final concentration of 28 nM. A polyA template was used at 6 nM, and a biotinylated oligo-dT12 primer was used at 180 nM final concentration. Template was obtained commercially (Amersham 27-4110). Biotinylated primer was prepared by Sigma Genosys. 3H-UTP was used at 0.6 μCi (0.29 μM total UTP). Reactions were initiated by the addition of enzyme, incubated at 30° C. for 60 min, and stopped by adding 25 μl of 50 mM EDTA containing SPA beads (4 μg/μl, Amersham RPNQ 0007). Plates were read on a Packard TOPCOUNT® NXT after >1 hr incubation at room temperature.
A modified enzyme assay was performed essentially as described for the standard enzyme assay except for the following: The biotinylated oligo dT12 primer was precaptured on streptavidin-coated SPA beads by mixing primer and beads in assay buffer and incubating at room temperature for one hour. Unbound primer was removed after centrifugation. The primer-bound beads were resuspended in 20 mM Hepes buffer, pH 7.5 and used in the assay at final concentrations of 20 nM primer and 0.67 μg/μl beads. Order of addition in the assay: enzyme (14 nM) was added to diluted compound followed by the addition of a mixture of template (0.2 nM), 3H-UTP (0.6 μCi, 0.29 μM), and primer-bound beads, to initiate the reaction; concentrations given are final. Reactions were allowed to proceed for 4 hours at 30° C.
IC50 values for compounds were determined using seven different [I]. IC50 values were calculated from the inhibition using the formula y=A+((B−A)/(1+((C/x)^D))).

[2] = system: HCV replicon; test: HCV replicon assay (FRET or luciferase reporter); format: cell-based; details: Hepatitis C virus, one of the methods described
From the text: To perform the HCV FRET screening assay, 96-well cell culture plates were used, The FRET peptide (Anaspec, Inc.) (Taliani et al., Anal. Biochem., 240:60-67 (1996)) contains a fluorescence donor, EDANS, near one end of the peptide and an acceptor, DABCYL, near the other end. The fluorescence of the peptide is quenched by […] resonance energy transfer (RET) between the donor and the acceptor, but as the NS3 protease cleaves the peptide the products are released from RET quenching and the fluorescence of the donor becomes apparent. The assay reagent was made as follows: 5× cell Luciferase cell culture lysis reagent from Promega (#E153A) diluted to 1× with dH2O, NaCl added to 150 mM final, the FRET peptide diluted to 20 μM final from a 2 mM stock.
To prepare plates, HCV replicon cells, with or without a Renilla luciferase reporter gene, were trypsinized and placed into each well of a 96-well plate with titrated test compounds added in columns 3 through 12; columns 1 and 2 contained a control compound (HCV protease inhibitor), and the bottom row contained cells without compound. The plates were then placed in a CO2 incubator at 37° C.
Subsequent to addition of the test compounds described above (FRET Assay Preparation), at various times the plate was removed and Alamar blue solution (Trek Diagnostics, #00-100) was added per well as a measure of cellular toxicity. After reading in a CYTOFLUOR® 4000 instrument (PE Biosystems), plates were rinsed with PBS and then used for FRET assay by the addition of 30 ul of the FRET peptide assay reagent described above (FRET Assay Preparation) per well. The plate was then placed into the CYTOFLUOR® 4000 instrument which had been set to 340 excite/490 emission, automatic mode for 20 cycles and the plate read in a kinetic mode. Typically, the signal to noise using an endpoint analysis after the reads was at least three-fold. Alternatively, after Alamar blue reading, plates were rinsed with PBS, 50 ul of DMEM (high glucose) without phenol red was added and plates were then used for luciferase assay using the Promega DUAL-GLO® Luciferase Assay System.
Compound analysis was determined by quantification of the relative HCV replicon inhibition and the relative cytotoxicity values. To calculate cytoxicity values, the average Alamar Blue fluorescence signals from the control wells were set as 100% non-toxic. The individual signals in each of the compound test wells were then divided by the average control signal and multiplied by 100% to determine […]. To calculate the HCV replicon inhibition values, an average background value was obtained from the two wells containing the highest amount of HCV protease inhibitor at the end of the assay period. These numbers were similar to those obtained from naïve Huh-7 cells.
The background numbers were then subtracted from the average signal obtained from the control wells and this number was used as 100% activity. The individual signals in each of the compound test wells were then divided by the averaged control values after background subtraction and multiplied by 100% to determine percent activity. EC50 values for a protease inhibitor titration were calculated as the concentration which caused a 50% reduction in FRET or luciferase activity. The two numbers generated for the compound plate, percent cytoxicity and percent activity were used to determine compounds of interest for further analysis.
The HCV replicon luciferase assay was developed to monitor the inhibitory effects of compounds described in the disclosure on HCV viral replication. Utilization of a replicon luciferase reporter assay was first described by Krieger et al (Krieger, N. et al., J. Virology, 75(10):4614-4624 (2001)). HUH-7 cells, constitutively expressing the HCV replicon, were grown in Dulbecco's Modified Eagle Media (DMEM) (Gibco-BRL) containing 10% Fetal calf serum (FCS) (Sigma) and 1 mg/ml G418 (Gibco-BRL). […]

T1 sequence (Q9WMX2 2420-2992): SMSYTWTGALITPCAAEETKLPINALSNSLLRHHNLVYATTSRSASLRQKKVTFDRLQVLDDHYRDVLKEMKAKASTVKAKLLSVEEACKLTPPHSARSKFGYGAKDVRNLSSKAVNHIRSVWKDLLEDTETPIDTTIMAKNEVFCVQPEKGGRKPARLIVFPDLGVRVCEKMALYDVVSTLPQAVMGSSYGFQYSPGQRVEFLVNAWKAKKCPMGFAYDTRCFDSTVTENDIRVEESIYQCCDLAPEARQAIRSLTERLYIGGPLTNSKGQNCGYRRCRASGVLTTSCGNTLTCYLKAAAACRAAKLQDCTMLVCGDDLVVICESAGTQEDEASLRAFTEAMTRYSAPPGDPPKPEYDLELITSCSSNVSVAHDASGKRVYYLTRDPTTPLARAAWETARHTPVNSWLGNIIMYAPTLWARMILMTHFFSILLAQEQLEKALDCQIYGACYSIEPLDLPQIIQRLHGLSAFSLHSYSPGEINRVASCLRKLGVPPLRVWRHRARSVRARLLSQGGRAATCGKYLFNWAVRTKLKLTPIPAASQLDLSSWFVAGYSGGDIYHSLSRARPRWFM

Compound	IC50 ([1]; class symbol)	EC50 ([2]; class symbol)	IC50 ([1]; exact value)	EC50 ([2]; exact value)
COc1ccc2c(c1)C=C(c1c(C(=O)N3C4CCC3CN(C)C4)cnn1C1CCC1)Cn1c-2c(C2CCCCC2)c2ccc(C(=O)NS(=O)(=O)C(C)C)cc21	1.7 to 500 nM	1.7 to 500 nM	–	–
CCN1C[C@@H]2C[C@H]1CN2C(=O)c1cnn(C2CCOCC2)c1C1=Cc2cc(OC)ccc2-c2c(C3CCCCC3)c3ccc(C(=O)NS(=O)(=O)C(C)C)cc3n2C1	1.7 to 500 nM	1.7 to 500 nM	–	–
COC[C@@H]1CN(C(=O)c2cnn(C3CCC3)c2C2=Cc3cc(OC)ccc3-c3c(C4CCCCC4)c4ccc(C(=O)NS(=O)(=O)C(C)C)cc4n3C2)CCO1	1.7 to 500 nM	1.7 to 500 nM	–	–
COc1ccc2c(c1)C=C(c1nn(C3CC3)cc1C(=O)N1CCOCC1)Cn1c-2c(C2CCCCC2)c2ccc(C(=O)NS(=O)(=O)C(C)C)cc21	1.7 to 500 nM	1.7 to 500 nM	–	–
COc1ccc2c(c1)C=C(c1c(C(=O)N3C[C@@H]4C[C@H]3CN4)cnn1C1CCC1)Cn1c-2c(C2CCCCC2)c2ccc(C(=O)NS(=O)(=O)C(C)C)cc21	1.7 to 500 nM	1.7 to 500 nM	–	–
COc1ccc2c(c1)C=C(c1c(C(=O)N3CCCOCC3)cnn1C1CCC1)Cn1c-2c(C2CCCCC2)c2ccc(C(=O)NS(=O)(=O)C(C)C)cc21	1.7 to 500 nM	1.7 to 500 nM	5.4 nM	7.6 nM
COc1ccc2c(c1)C=C(c1c(C(=O)N3C4CCC3CN(C)C4)cnn1C1CCC1)Cn1c-2c(C2CCCCC2)c2ccc(C(=O)NS(=O)(=O)N(C)C)cc21	1.7 to 500 nM	1.7 to 500 nM	–	–
COc1ccc2c(c1)C=C(c1c(C(=O)N3CC(F)(F)C3)cnn1C1CCC1)Cn1c-2c(C2CCCCC2)c2ccc(C(=O)NS(=O)(=O)C(C)C)cc21	1.7 to 500 nM	1.7 to 500 nM	–	–
COc1ccc2c(c1)C=C(c1ncn(C3CC3)c1C(=O)N1CCOCC1)Cn1c-2c(C2CCCCC2)c2ccc(C(=O)NS(=O)(=O)C(C)C)cc21	1.7 to 500 nM	1.7 to 500 nM	2.4 nM	8.8 nM
COc1ccc2c(c1)C=C(c1c(C(=O)N3CC4CCC(C3)N4C)cnn1C1CCC1)Cn1c-2c(C2CCCCC2)c2ccc(C(=O)NS(=O)(=O)C(C)C)cc21	1.7 to 500 nM	1.7 to 500 nM	–	–
COc1ccc2c(c1)C=C(c1c(C(=O)N3C4CCCCC3CCC4)cnn1C1CCC1)Cn1c-2c(C2CCCCC2)c2ccc(C(=O)NS(=O)(=O)C(C)C)cc21	1.7 to 500 nM	1.7 to 500 nM	7 nM	400 nM
COCCN(C(=O)c1cnn(C2CCC2)c1C1=Cc2cc(OC)ccc2-c2c(C3CCCCC3)c3ccc(C(=O)NS(=O)(=O)C(C)C)cc3n2C1)C(C)C	1.7 to 500 nM	1.7 to 500 nM	–	–
COc1ccc2c(c1)C=C(c1c(C(=O)N3C[C@@H](C)O[C@@H](C)C3)cnn1-c1ncccn1)Cn1c-2c(C2CCCCC2)c2ccc(C(=O)NS(=O)(=O)C(C)C)cc21	1.7 to 500 nM	1.7 to 500 nM	–	–
COCCN(CCOC)C(=O)c1cnn(C2CCC2)c1C1=Cc2cc(OC)ccc2-c2c(C3CCCCC3)c3ccc(C(=O)NS(=O)(=O)C(C)C)cc3n2C1	1.7 to 500 nM	1.7 to 500 nM	–	–
COc1ccc2c(c1)C=C(c1c(C(=O)N3C4CCC3CC4)cnn1C1CCC1)Cn1c-2c(C2CCCCC2)c2ccc(C(=O)NS(=O)(=O)C(C)C)cc21	1.7 to 500 nM	1.7 to 500 nM	–	–
COc1ccc2c(c1)C=C(c1c(C(=O)N3C[C@@H](C)O[C@@H](C)C3)c(C)nn1C1CCC1)Cn1c-2c(C2CCCCC2)c2ccc(C(=O)NS(=O)(=O)C(C)C)cc21	1.7 to 500 nM	1.7 to 500 nM	6.4 nM	10 nM
COc1ccc2c(c1)C=C(c1c(C(=O)N3C[C@@H](C)O[C@@H](C)C3)cnn1C1CCCC1)Cn1c-2c(C2CCCCC2)c2ccc(C(=O)NS(=O)(=O)C(C)C)cc21	1.7 to 500 nM	1.7 to 500 nM	–	–
COc1ccc2c(c1)C=C(c1c(C(=O)N3CCC(F)(F)CC3)cnn1C1CCC1)Cn1c-2c(C2CCCCC2)c2ccc(C(=O)NS(=O)(=O)C(C)C)cc21	1.7 to 500 nM	1.7 to 500 nM	–	–
COc1ccc2c(c1)C=C(c1c(C(=O)N3C4CCC3CN(C)C4)cnn1C1CCC1)Cn1c-2c(C2CCCCC2)c2ccc(C(=O)NS(=O)(=O)CC(C)C)cc21	1.7 to 500 nM	1.7 to 500 nM	3.3 nM	8.1 nM
CCN1C[C@@H]2C[C@H]1CN2C(=O)c1c(C)nn(C2CCC2)c1C1=Cc2cc(OC)ccc2-c2c(C3CCCCC3)c3ccc(C(=O)NS(=O)(=O)N(C)C)cc3n2C1	1.7 to 500 nM	1.7 to 500 nM	3.4 nM	10 nM
COC[C@H]1CN(C(=O)c2cnn(C3CCC3)c2C2=Cc3cc(OC)ccc3-c3c(C4CCCCC4)c4ccc(C(=O)NS(=O)(=O)C(C)C)cc4n3C2)CCO1	< 1.7 nM	1.7 to 500 nM	< 1.7 nM	10 nM
COc1ccc2c(c1)C=C(c1c(C(=O)N3CC4CCC(C3)N4C)cnn1C1CCC1)Cn1c-2c(C2CCCCC2)c2ccc(C(=O)NS(=O)(=O)CC(C)C)cc21	1.7 to 500 nM	1.7 to 500 nM	–	–
